In patent publication US12569506B2, “Methods of treating osteonecrosis with LLP2A-bisphosphonate compounds” (The Regents of the University of California, priority 2016, dated 2026):
Entries after “also recorded” stand apart in the source; their conditions may differ.

Legend:
[1] = test system: dexamethasone-treated mice; experiment: 30 and 45 day prevention study: incidence of glucocorticoid-induced osteonecrosis; format: in vivo, BALB/c mice; conditions: 30 or 45 days; Dex + LLP2A-Ale 250 or 500 μg/kg, or Dex + 40 μg/kg hPTH five times a week (FIG. 12)
Protocol: FIG. 12. Reduction in incidence of glucocorticoid-induced osteonecrosis in mice treated with recombinant LLP2A-Ale. Mice were randomized into placebo (PL) (fresh water), dexamethasone (Dex) 4 mg/l in drinking water, Dex+250 μg/kg LLP2A-Ale, Dex+500 μg/kg LLP2A-Ale, or Dex+40 μg/kg hPTH (1-34) groups for a 30 day treatment period or a 45 day treatment period. The incidence of Dex-induced osteonecrosis was 57% on day 30 and 73% on day 45.
(§1) The efficacy of LLP2A-Ale and hPTH (1-34) was evaluated over a 30 and 45 day study using a mouse model of glucocorticoid-induced osteonecrosis. Seven week-old male BALB/c mice were randomized into Placebo group (fresh water), glucocorticoid only (4 mg/L dexamethasone (Dex) in drinking water), Dex+250 μg/kg LLP2A-Ale, Dex+500 μg/kg LLP2A-Ale, or Dex+40 μg/kg hPTH (administered five times a week) for 30 or 45 days. At day 30 or 45, the mice were sacrificed. Study endpoints included histological evidence of osteonecrosis, bone mass, and prevalent blood vessels (CD31 and Endomucin expression) in the distal femur, and was performed as set forth in Example 2. Non-parametric Kruskal-Wallis tests were used to determine the differences between the groups.

[2] = test system: glucocorticoid-treated mice; experiment: 56 day mouse model of glucocorticoid-induced osteonecrosis: femur blood vessel / vascular density by microCT; format: in vivo
Protocol: FIG. 2. Blood vessel density of femurs from glucocorticoid-treated mice. 4 month old male mice were treated glucocorticoid (“GC”) or placebo for 56 days. At day 28 a group of glucocorticoid-treated mice were treated with LLP2A-Ale or PTH for an additional 28 days.
FIG. 3. Vascular density of femurs from glucocorticoid-treated mice. 4 month old male mice were treated with glucocorticoid or placebo for 56 days. At day 28 a group of glucocorticoid-treated mice were treated with LLP2A-Ale or PTH for an additional 28 days. At day 56 animals were given a contrast agent and then sacrificed and then the animals femurs were decalcified and then scanned by microCT.
The efficacy of LLP2A-Ale was evaluated using a mouse model of glucocorticoid-induced osteonecrosis. 4-month-old male mice were treated for 56 days with glucocorticoids. At day 28, a group of mice was treated with either LLP2A-Ale or PTH for an additional 28 days. Blood vessel density of the femur was measured after sacrifice by microCT according to published methods. […] Vascular density of the femurs of glucocorticoid-treated mice subsequently treated with LLP2A-Ale or PTH was also assessed by giving the mice a contrast agent, then sacrificing the mice, decalcifying the femurs, and scanning the femurs by microCT. […] Without being bound to a particular theory, it is believed that LLP2A-Ale promotes increased vascularity by bringing MSCs to the bone that is turning over with osteonecrosis, which stimulates new blood vessel formation, which in turn is needed to stimulate new bone formation in the osteonecrotic bone.

VEGF = experiment: Serum VEGF levels by ELISA in glucocorticoid-treated mice; format: in vivo; conditions: day 56; GC from day 1; LLP2A-Ale given at day 28; ELISA in duplicate (FIG. 4)
Protocol: FIG. 4. Serum VEGF-A levels in glucocorticoid-treated mice. Mice treated with placebo (PL), glucocorticoid (GC), glucocorticoid and 250 μg/kg LLP2A-Ale (GC+LLP2A-Ale), glucocorticoid and PTH (GC+PTH), or glucocorticoid and PTH and 250 μg/kg LLP2A-Ale (GC+PTH+LLP2A-Ale) were measured for serum levels of VEGF.
Increased blood vessel formation can also be assessed by marker analysis. For example, VEGF is a pro-angiogenic factor and stimulates new blood vessel formation. […] PTH was given 20 ug/kg 5× a week, while LLP2A-Ale was given at […] at day 28 only.

[3] = test system: CD31 and Endomucin expression; experiment: 30 and 45 day prevention study: blood vessels in the distal femur (CD31 and Endomucin expression); format: in vivo, BALB/c mice; conditions: 30 and 45 day study, conclusion
Protocol: as §1

[4] = test system: glucocorticoid-treated mice; experiment: Trabecular bone volume in glucocorticoid-treated mice; format: in vivo; conditions: GC 28 days then treatment
Protocol: FIG. 6. Trabecular bone volume in glucocorticoid-treated mice. Mice were treated for 28 days with glucocorticoid (GC), then treated with either LLP2A-Ale, PTH, or LLP2A-Ale+PTH. The outcome measure was the change in trabecular bone mass from day 28 to 56, measured in vivo at the distal femur (left panel) and change in trabecular bone mass for the vertebral trabecular bone volume (right panel).
Changes in trabecular bone mass during the treatment period for the distal femur and vertebral trabecular bone volume were measured.

[5] = test system: dexamethasone-treated mice; experiment: Adipose and sinusoid volume of distal femoral epiphysis, 90 day model; format: in vivo, BALB/c mice
Protocol: FIG. 10A-10B. Adipose and sinusoid volume of femurs from treated mice. Mice were treated with placebo (PL), dexamethasone alone (Dex), Dex+250 μg/kg LLP2A-Ale, Dex+500 μg/kg LLP2A-Ale, or Dex+750 μg/kg LLP2A-Ale as described above for FIG. 7. (A) Mice were assessed for adipose volume within the distal femoral epiphysis region. […] (B) Mice were assessed for sinusoids in the bone marrow.
Both the right and left distal femurs were fixed in 10% neutral buffered formalin and were shaken for 3 days, then decalcified in 5% EDTA until the bones were fully decalcified. The specimens were then processed in ascending concentrations of ethanol and embedded in paraffin. Tissue sections were cut into 5 microns sections, stained with hematoxylin and eosin and evaluated for the presence of osteonecrosis by bright field microscopy at 20× magnification. Experimental methods are also described in Mohan et al., Calif Tissue Int (2016) doi:10.1007/s00223-016-0195-6, which is incorporated herein by reference in its entirety for all purposes. Osteonecrosis was detected using modified criteria reported by Yang el al., (a mouse model for glucocorticoid-induced osteonecrosis: Effect of a steroid holiday. J Orthop Res. 2009; 27:169-75) which defines osteonecrosis as requiring all of the following changes: (1) empty lacunae, (2) pyknotic osteocyte nuclei in areas of empty lacunae and necrosis of adjacent bone marrow, (3) presence of excessive fat cells in the bone marrow, (4) cartilage degradation and (5) presence of fibrin thrombi in the blood vessels. In addition, trabecular bone volume, adipose volume, sinusoid volume and osteoblast surface at the distal femoral epiphyses were measured. Empty lacunae density was calculated by empty lacunae/total osteocytes within the entire distal femoral epiphysis region for each sample. Each section was scored by two experienced histologists, then a consensus reading was performed by two additional experienced histologists.

Cc1ccccc1NC(=O)Nc1ccc(CC(=O)N[C@@H](CCCCNC(=O)/C=C/c2cccnc2)C(=O)N[C@@H](CCCC(=O)O)C(=O)NC2(C(=O)NCCOCCOCCNC(=O)CCC(=O)NCCOCCOCCNC(=O)CCC(=O)N[C@@H](CCCCNC(=O)[C@H](N)CSC3CC(=O)N(CC4CCC(C(=O)NCCCC(O)(P(=O)(O)O)P(=O)(O)O)CC4)C3=O)C(N)=O)CCCCC2)cc1 (stereo partly shown) [LLP2A-Ale]
Prevalence/incidence of glucocorticoid-induced osteonecrosis lesions (in words) [1]: prevented incident GC-induced osteonecrosis lesions; also recorded: reduced the incidence and severity of osteonecrosis; also recorded: prevented glucocorticoid-induced osteonecrotic lesions | Blood vessel density of the femur ([2]; 4 month old male mice, GC 56 days, LLP2A-Ale or PTH from day 28 for 28 days, microCT after sacrifice (FIG. 2)): significantly higher than the negative control; also recorded: significantly different from all other groups | Vascular density of femurs ([2]; contrast agent at day 56, decalcified femurs scanned by microCT (FIG. 3), vs GC alone): increased vascular density compared to glucocorticoid alone; also recorded: increased vascular density compared to GC alone | Serum levels of VEGF (VEGF): returned the levels of serum VEGF to those of placebo treated animals | Vascular integrity of the distal femur [3]: maintained the vascular integrity | Change in trabecular bone mass/volume at the distal femur ([4]; change from day 28 to 56, measured in vivo (FIG. 6 left)): increased the distal femur trabecular bone volume to the baseline/sham level | Vertebral trabecular bone volume ([4]; day 28 to 56 (FIG. 6 right)): increased the bone volume relative to the glucocorticoid-treated mice | Sinusoid volume on increasing the dose ([5]; LLP2A-Ale above 250 μg/kg vs 250 μg/kg): marginal decrease | Adipose volume within the distal femoral epiphysis ([5]; all three dosages (250, 500, 750 μg/kg) vs Dex alone, day 90 (FIG. 10A)): reduced adipose volumes | Sinusoid volume in the bone marrow ([5]; all three dosages vs placebo or Dex alone, day 90 (FIG. 10B)): increased sinusoid volumes
